Experimental data as given in ChEMBL document CHEMBL5523691, “SAR study of N'-(Salicylidene)heteroarenecarbohydrazides as promising antifungal agents” (Bioorg Med Chem, 2024).
Converted amounts (≈) assume the structure as drawn. The source made the active and inactive calls. The rule behind the calls is not given here.

What was measured:
[1] = Selectivity index, ratio of LD50 for human A549 cells to MIC80 for Cryptococcus neoformans H99; type: toxicity; conditions: read-out: Selectivity Index
Cryptococcus neoformans [2] = test: Antifungal activity against wild type Cryptococcus neoformans H99 assessed as inhibition of fungal growth incubated for 24 to 72 hrs by optical density based analysis; type: functional; conditions: time 24-72 hrs
[3] = Cytotoxicity against human A549 cells assessed as cell killing measured after 24 to 48 hrs by MTT assay; type: toxicity, cell-based; conditions: time 24-48 hrs, read-out: LD50 (the source's name)
Cryptococcus neoformans [4] = test: Fungistatic activity against wild type Cryptococcus neoformans H99 assessed as inhibition of fungal growth incubated for 12 to 48 hrs by time-kill assay; type: functional, organism-based; conditions: time 12-48 hrs
Cryptococcus neoformans [5] = test: Fungicidal activity against wild type Cryptococcus neoformans H99 assessed as minimum concentration required to kill fungus measured after 12 hrs by time-kill assay; type: functional
Cryptococcus neoformans [6] = test: Fungicidal activity against wild type Cryptococcus neoformans H99 assessed as minimum concentration required to kill fungus measured after 24 hrs by time-kill assay; type: functional
Aspergillus fumigatus = test: Antifungal activity against Aspergillus fumigatus assessed as inhibition of fungal growth incubated for 24 to 72 hrs by optical density based analysis; type: functional; conditions: time 24-72 hrs

Structure (SMILES) | MIC80 (Cryptococcus neoformans [2]) [µg/mL] | further results
O=C(N/N=C/c1ccc(Br)cc1O)c1cc(Br)c(Br)o1 | 0.06 (≈ 0.129 µM) | selectivity ratio [1]: 267; CC50 [3]: 16 µg/mL (≈ 34.3 µM); Activity (Cryptococcus neoformans [4]): Active
Cc1ccc2c(C)c(C(=O)N/N=C/c3cc(Br)cc(Br)c3O)oc2c1 | > 16 | 
O=C(N/N=C/c1cc(Br)cc(Br)c1O)c1cc(Br)c[nH]1 | 4 (≈ 8.59 µM) | 
O=C(N/N=C/c1cc(Br)cc(Br)c1O)c1cc(Br)c(Br)s1 | 1 (≈ 1.78 µM) | selectivity ratio [1]: > 32; MFC100 (Cryptococcus neoformans [5]): 1 µg/mL (≈ 1.78 µM); CC50 [3]: > 32 µg/mL
O=C(N/N=C/c1cc(Br)cc(Br)c1O)c1ncc[nH]1 | 2 (≈ 5.15 µM) | 
O=C(N/N=C/c1cc(Br)ccc1O)c1ncc(Br)cn1 | > 16 | 
O=C(N/N=C/c1cc(Br)cc(Br)c1O)c1cncc(Br)c1 | > 16 | 
O=C(N/N=C/c1ccc(Br)cc1O)c1cc[nH]n1 | 2 (≈ 6.47 µM) | 
O=C(N/N=C/c1cc(Br)ccc1O)c1cc[nH]n1 | 4 (≈ 12.9 µM) | 
O=C(N/N=C/c1c(O)ccc2ccccc12)c1cc(Br)co1 | > 16 | 
O=C(N/N=C/c1cc(Br)cc(Br)c1O)c1ncc(Br)cn1 | 0.25 (≈ 0.522 µM) | Activity (Cryptococcus neoformans [4]): Active
O=C(N/N=C/c1cc(Br)ccc1O)c1cccs1 | 8 (≈ 24.6 µM) | 
O=C(N/N=C/c1cc(Br)ccc1O)c1csc2ccccc12 | > 16 | 
O=C(N/N=C/c1cc(Br)ccc1O)c1cc(Br)c[nH]1 | > 16 | 
O=C(N/N=C/c1cc(Br)ccc1O)c1ccc(C(F)(F)F)s1 | 0.007 (≈ 0.0178 µM) | selectivity ratio [1]: 143; MFC100 (Cryptococcus neoformans [6]): 0.25 µg/mL (≈ 0.636 µM); CC50 [3]: 1 µg/mL (≈ 2.54 µM)
O=C(N/N=C/c1ccc(Br)cc1O)c1csc(Br)c1 | 0.25 (≈ 0.619 µM) | selectivity ratio [1]: > 128; MFC100 (Cryptococcus neoformans [6]): 0.5 µg/mL (≈ 1.24 µM); CC50 [3]: > 32 µg/mL
O=C(N/N=C/c1cc(Br)ccc1O)c1nc2cc(Br)ccc2[nH]1 | > 16 | 
O=C(N/N=C/c1c(O)ccc2ccccc12)c1cc(Br)c(Br)s1 | 16 (≈ 35.2 µM) | 

Structure (SMILES) | MIC80 (Cryptococcus neoformans [2]) [µg/mL] | further results
O=C(N/N=C/c1cc(Br)cc(Br)c1O)c1cc2cc(Br)ccc2cn1 | > 16 | 
O=C(N/N=C/c1ccc(Br)cc1O)c1cncc(Br)c1 | 1 (≈ 2.51 µM) | selectivity ratio [1]: 64; CC50 [3]: > 32 µg/mL; Activity (Cryptococcus neoformans [4]): Active
O=C(N/N=C/c1cc(Br)ccc1O)c1cc(Br)c(Br)s1 | 0.12 (≈ 0.248 µM) | selectivity ratio [1]: 267; MFC100 (Cryptococcus neoformans [6]): 0.25 µg/mL (≈ 0.518 µM); CC50 [3]: 32 µg/mL (≈ 66.3 µM)
O=C(N/N=C/c1ccc(Br)cc1O)c1ncc(Br)cn1 | > 16 | 
O=C(N/N=C/c1c(O)ccc2ccccc12)c1cc[nH]n1 | 4 (≈ 14.3 µM) | 
O=C(N/N=C/c1cc(Br)cc(Br)c1O)c1cc2cc(Br)ccc2o1 | > 16 | 
O=C(N/N=C/c1cc(Br)ccc1O)c1cc2cc(Br)ccc2cn1 | > 16 | 
O=C(N/N=C/c1cc(Br)ccc1O)c1ccco1 | 2 (≈ 6.47 µM) | 
O=C(N/N=C/c1cc(Br)cc(Br)c1O)c1cc(Br)c(Br)o1 | 0.12 (≈ 0.22 µM) | selectivity ratio [1]: 133; MFC100 (Cryptococcus neoformans [5]): 0.12 µg/mL (≈ 0.22 µM); CC50 [3]: 16 µg/mL (≈ 29.3 µM)
C[C@@H]1[C@H](O)[C@@H](C)/C=C/C=C/C=C/C=C/C=C/C=C/C=C/[C@H](O[C@@H]2O[C@H](C)[C@@H](O)[C@H](N)[C@@H]2O)C[C@@H]2O[C@](O)(C[C@@H](O)C[C@@H](O)[C@H](O)CC[C@@H](O)C[C@@H](O)CC(=O)O[C@H]1C)C[C@H](O)[C@H]2C(=O)O [AMPHOTERICIN B] | 0.5 (≈ 0.541 µM) | MIC80 (Aspergillus fumigatus): 1 µg/mL (≈ 1.08 µM)
O=C(N/N=C/c1c(O)ccc2ccccc12)c1ccc(C(F)(F)F)s1 | 0.007 (≈ 0.0192 µM) | selectivity ratio [1]: 17.1; MFC100 (Cryptococcus neoformans [6]): 0.25 µg/mL (≈ 0.686 µM); CC50 [3]: 0.12 µg/mL (≈ 0.329 µM)
O=C(N/N=C/c1ccc(Br)cc1O)c1cccs1 | 4 (≈ 12.3 µM) | 
O=C(N/N=C/c1cc(Br)cc(Br)c1O)c1ccco1 | 8 (≈ 20.6 µM) | 
O=C(N/N=C/c1cc(Br)cc(Br)c1O)c1cc[nH]c1 | 2 (≈ 5.17 µM) | 
O=C(N/N=C/c1ccc(Br)cc1O)c1cc(Br)c[nH]1 | 8 (≈ 20.7 µM) | 
O=C(N/N=C/c1cc(Br)cc(Br)c1O)c1cc2ccccc2cn1 | > 16 | 
O=C(N/N=C/c1c(O)ccc2ccccc12)c1cc[nH]c1 | > 16 | 
